The values below come from the RepoRT retention time repository (doi:10.1021/acs.analchem.1c00972).

Series [1] can be described thus: RP, Waters ACQUITY UPLC BEH C18, 100 × 1 mm, 1.7 µm, 50 °C, 0.3 mL/min, estimated dead time 0.17 min; A: water + 0.1% formic acid + 20 mM ammonium formate; B: methanol + 0.1% formic acid + 20 mM ammonium formate; gradient (min/%B) 0/0 15/100 21/100 22/0 30/0. The settings on record: stereoisomer not certain.
A short description of series [2]: RP, Waters ACQUITY UPLC BEH C18, 100 × 1 mm, 1.7 µm, 50 °C, 0.3 mL/min, estimated dead time 0.17 min; A: water + 10 mM ammonium bicarbonate; B: 10% water + 90% methanol + 10 mM ammonium bicarbonate; gradient (min/%B) 0/0 15/100 21/100 22/0 30/0. The settings on record: stereoisomer not certain.

In the case of `CCCCOC(=O)C(C)Oc1ccc(Oc2ccc(C(F)(F)F)cn2)cc1` (stereo not drawn) [Fluazifop-butyl], the LC retention time in series [1] was 16.7 min; in series [2], 17.1 min.

`CC1CCc2cc(F)cc3c(=O)c(C(=O)O)cn1c23` (stereo not drawn) [Flumequine]: the LC retention time in series [1] was 11.8 min; in series [2], 8.91 min.

Consider `CC1(C)OC2CC3C4CC(F)C5=CC(=O)C=CC5(C)C4C(O)CC3(C)C2(C(=O)CO)O1` (stereo not drawn) [Flunisolide], for which the values for the LC retention time in series [1] and in series [2] were 13.6 min and 13.8 min, respectively.

For `CC(=O)C1(O)CCC2C3CC(C)C4=CC(=O)C=CC4(C)C3(F)C(O)CC21C` (stereo not drawn) [Fluorometholone], the figures for the LC retention time in series [1] and in series [2] were 13.8 min and 14.1 min, respectively.

Consider `OCCN1CCN(CCC=C2c3ccccc3Sc3ccc(C(F)(F)F)cc32)CC1` [Flupentixol], for which the figures for the LC retention time in series [1] and in series [2] were 14.7 min and 17.3 min, respectively.

Regarding `O=c1c2cc(F)ccc2nc(-n2cncn2)n1-c1ccc(Cl)cc1Cl` [Fluquinconazole], the LC retention time in series [1] is 14.7 min; in series [2] it was 15 min.

In the case of `CCC(=O)OC1(C(=O)SCF)C(C)CC2C3CC(F)C4=CC(=O)C=CC4(C)C3(F)C(O)CC21C` (stereo not drawn) [Fluticasone propionate], the LC retention time was 15.3 min in series [1] and 15.6 min in series [2].

For the molecule `COCCCCC(=NOCCN)c1ccc(C(F)(F)F)cc1` [Fluvoxamine], the LC retention time in series [1] is 13.5 min; in series [2], 15.3 min.

As to `CCOP(=O)(SC(C)CC)N1CCSC1=O` (stereo not drawn) [Fosthiazate], the values for the LC retention time in series [1] and in series [2] were 12.6 min and 12.8 min, respectively.

Regarding `COc1cc2ccc(=O)oc2c(O)c1OC` [Fraxidin], the values for the LC retention time in series [1] and in series [2] were 9.59 min and 8.22 min, respectively.

On to `CCCCOC(=O)N(C)SN(C)C(=O)Oc1cccc2c1OC(C)(C)C2` [Furathiocarb], for which the LC retention time in series [1] is 16.7 min; in series [2], 17.1 min.

Take `O=C1CC2(CCCCC2)CN1` [Gabapentin-Lactam]: the LC retention time in series [1] is 11.3 min; in series [2], 11.4 min.

In the case of `NCC1(CC(=O)O)CCCCC1` [Gabapentin], the LC retention time in series [1] is 7.38 min; in series [2], 6.17 min.

Regarding `CC1COC(=O)c2cc3c(cc21)C(C)(C)C(C)C3(C)C` (stereo not drawn) [Galaxolidone], the values for the LC retention time in series [1] and in series [2] were 16.6 min and 16.9 min, respectively.

Consider `C#CC1(O)C=CC2C3CCC4=CC(=O)CCC4C3CCC21CC` (stereo not drawn) [Gestoden], for which the LC retention time in series [1] is 14 min; in series [2], 14.3 min.

Consider `COc1ccc(Cl)cc1C(=O)NCCc1ccc(S(=O)(=O)NC(=O)NC2CCCCC2)cc1` [Glibenclamide], for which the LC retention time in series [1] is 14.9 min; in series [2] it was 13.9 min.

Consider `O=S(=O)(O)ON=C(Cc1c[nH]c2ccccc12)SC1OC(CO)C(O)C(O)C1O` (stereo not drawn) [Glucobrassicin], for which the LC retention time in series [1] was 6.39 min; in series [2], 6.03 min.

For the molecule `Cc1nccc2c1[nH]c1ccccc12` [Harman], the LC retention time in series [1] is 9.01 min; in series [2] it was 13.4 min.

With `COc1ccc2c(c1)[nH]c1c(C)nccc12` [Harmine], the LC retention time in series [1] is 9.88 min; in series [2], 13.5 min.

With `CC1(C)CCC2(C(=O)O)CCC3(C)C(=CCC4C5(C)CCC(O)C(C)(CO)C5CCC43C)C2C1` (stereo not drawn) [Hederagenin], the LC retention time is 17.2 min in series [1] and 15.9 min in series [2].

Consider `COC(C)C(O)(C(=O)OCC1=CC[N+]2([O-])CCC(O)C12)C(C)C` (stereo not drawn) [Heliotrine N-oxide], for which the LC retention time is 8.36 min in series [1] and 8.96 min in series [2].

As for `COC(C)C(O)(C(=O)OCC1=CCN2CCC(O)C12)C(C)C` (stereo not drawn) [Heliotrine], the LC retention time in series [1] is 8.05 min; in series [2], 11.6 min.

`COCN(COC)c1nc(N(COC)COC)nc(N(COC)COC)n1` [Hexa(methoxymethyl)melamine]: the LC retention time was 12.6 min in series [1] and 12.9 min in series [2].

With `CN(C)c1nc(=O)n(C2CCCCC2)c(=O)n1C` [Hexazinone], the LC retention time in series [1] is 11.7 min; in series [2], 11.9 min.

On to `COC(=O)CC(O)(CCCC(C)(C)O)C(=O)OC1C(OC)=CC23CCCN2CCc2cc4c(cc2C13)OCO4` (stereo not drawn) [Homoharringtonine], for which the LC retention time in series [1] is 9.4 min; in series [2], 14 min.

As for `CC=C1C2C=C(C)CC1(N)c1ccc(=O)[nH]c1C2` (stereo not drawn) [Huperzin A], the values for the LC retention time in series [1] and in series [2] were 7.5 min and 11.1 min, respectively.

On to `CCN(CCO)CCCC(C)Nc1ccnc2cc(Cl)ccc12` (stereo not drawn) [Hydroxychloroquine], for which the LC retention time was 7.34 min in series [1] and 14.1 min in series [2].

Regarding `O=c1c(OC2OC(CO)C(O)C(O)C2O)c(-c2ccc(O)c(O)c2)oc2cc(O)cc(O)c12` (stereo not drawn) [Hyperoside], the results for the LC retention time in series [1] and in series [2] were 9.67 min and 6.8 min, respectively.

With `CCC(C)OC(=O)N1CCCCC1CCO` (stereo not drawn) [Icaridin], the LC retention time in series [1] was 13.7 min; in series [2] it was 14 min.

For `Cc1ccc(NC(=O)c2ccc(CN3CCN(C)CC3)cc2)cc1Nc1nccc(-c2cccnc2)n1` [Imatinib], the LC retention time in series [1] is 11.2 min; in series [2], 13.9 min.

Regarding `CC(C)C1(C)N=C(c2ncccc2C(=O)O)NC1=O` (stereo not drawn) [Imazapyr], the LC retention time in series [1] was 8.89 min; in series [2], 5.24 min.

Turning to `CC(C)C1(C)N=C(c2nc3ccccc3cc2C(=O)O)NC1=O` (stereo not drawn) [Imazaquin], the LC retention time was 11.8 min in series [1] and 9.01 min in series [2].

Consider `CCc1cnc(C2=NC(C)(C(C)C)C(=O)N2)c(C(=O)O)c1` (stereo not drawn) [Imazethapyr], for which the LC retention time in series [1] is 11.2 min; in series [2], 8 min.

Turning to `O=[N+]([O-])N=C1NCCN1Cc1ccc(Cl)nc1` [Imidacloprid], the LC retention time in series [1] was 8.69 min; in series [2], 8.74 min.

For `CC(C)=CCOc1c2occc2cc2ccc(=O)oc12` [Imperatorin], the figures for the LC retention time in series [1] and in series [2] were 14.3 min and 14.6 min, respectively.

Regarding `O=C(Nc1ccc(Cl)cc1C(O)c1ccccc1)c1ccncc1` (stereo not drawn) [Inabenfide], the LC retention time in series [1] was 13.9 min; in series [2], 14.2 min.

On to `CC(O)C(=O)Nc1c(I)c(C(=O)NC(CO)CO)c(I)c(C(=O)NC(CO)CO)c1I` (stereo not drawn) [Iopamidol], for which the LC retention time is 3.66 min in series [1] and 3.64 min in series [2].

On to `Cc1ccc(C(C)NC(=O)C(NC(=O)OC(C)C)C(C)C)cc1` (stereo not drawn) [Iprovalicarb], for which the LC retention time in series [1] was 14.8 min; in series [2] it was 15.1 min.

For `CC1=CC(=O)CC(C)(C)C1` [Isophorone], the LC retention time in series [1] is 11.7 min; in series [2] it was 11.9 min.

Consider `CNC(=O)Oc1ccccc1C(C)C` [Isoprocarb], for which the LC retention time in series [1] is 12.9 min; in series [2], 13.1 min.

Turning to `CCC(C)(CC)c1cc(NC(=O)c2c(OC)cccc2OC)on1` [Isoxaben], the figures for the LC retention time in series [1] and in series [2] were 14.4 min and 14.6 min, respectively.

Take `CCOC(=O)C1=NOC(c2ccccc2)(c2ccccc2)C1` [Isoxadifen-ethyl]: the LC retention time is 15.4 min in series [1] and 15.7 min in series [2].

On to `CCC(C)C1OC2(CCC1C)CC1CC(CC=C(C)C(OC3CC(OC)C(OC4CC(OC)C(O)C(C)O4)C(C)O3)C(C)C=CC=C3COC4C(O)C(C)=CC(C(=O)O1)C34O)O2` (stereo not drawn) [Ivermectin B1a], for which the values for the LC retention time in series [1] and in series [2] were 18.8 min and 19.3 min, respectively.

Regarding `CC1CC2(OC2C)C(=O)OC2CC[N+]3([O-])CC=C(COC(=O)C1(C)O)C23` (stereo not drawn) [Jacobine N-oxide], the LC retention time in series [1] is 6.84 min; in series [2], 7.35 min.

Take `CC1CC2(OC2C)C(=O)OC2CCN3CC=C(COC(=O)C1(C)O)C23` (stereo not drawn) [Jacobine]: the LC retention time in series [1] is 6.52 min; in series [2], 10.1 min.

Take `CC1=C2C(=O)C3C(CC=C4CC(O)CCC43C)C2CCC12OC1CC(C)CNC1C2C` (stereo not drawn) [Jervine]: the values for the LC retention time in series [1] and in series [2] were 11.7 min and 15.2 min, respectively.

On to `O=c1c(O)c(-c2ccc(O)cc2)oc2cc(O)cc(O)c12` [Kaempferol], for which the results for the LC retention time in series [1] and in series [2] were 12.3 min and 10.1 min, respectively.

Consider `CNC1(c2ccccc2Cl)CCCCC1=O` (stereo not drawn) [Ketamine], for which the LC retention time in series [1] was 8.96 min; in series [2], 13.5 min.

Turning to `CC(=O)N1CCN(c2ccc(OCC3COC(Cn4ccnc4)(c4ccc(Cl)cc4Cl)O3)cc2)CC1` (stereo not drawn) [Ketoconazole], the LC retention time was 13.3 min in series [1] and 16.1 min in series [2].

Consider `CN1CCC(=C2c3ccccc3CC(=O)c3sccc32)CC1` [Ketotifen], for which the results for the LC retention time in series [1] and in series [2] were 10.4 min and 14.7 min, respectively.

For the molecule `CON=C(C(=O)OC)c1ccccc1COc1ccccc1C` [Kresoxim-methyl], the LC retention time in series [1] is 15.4 min; in series [2], 15.8 min.

`[NH3+][C@@H](Cc1cc(I)c(Oc2cc(I)c(O)c(I)c2)c(I)c1)C(=O)[O-]` [L-thyroxine]: the results for the LC retention time in series [1] and in series [2] were 14.1 min and 12.9 min, respectively.

Take `CC(CCc1ccccc1)NCC(O)c1ccc(O)c(C(N)=O)c1` (stereo not drawn) [Labetalol]: the results for the LC retention time in series [1] and in series [2] were 10.6 min and 12.8 min, respectively.

As to `N=c1nc(N)c(-c2cccc(Cl)c2Cl)nn1O` [Lamotrigin-N2-Oxid], the results for the LC retention time in series [1] and in series [2] were 9.42 min and 9.15 min, respectively.
